Laboratory results as given in PMC11844072, “Novel 5,6-dichlorobenzimidazole derivatives as dual BRAFWT and BRAFV600E inhibitors: design, synthesis, anti-cancer activity and molecular dynamics simulations” (BMC Chemistry, 2025).

Tests used:
Test in all cases: NCI 60 single concentration growth inhibition
Type in all cases: cell-based, human
OVCAR-5 = settings: Homo sapiens, OVCAR-5, Ovarian cancer, read-out: GI%
Method: (§1) The synthesized dichlorobenzimidazoles 10a–p were assayed for their influence on divers cancer cell lines according to the method presented in the Additional file A.
(§2) 5. Screening of cytotoxic activity against a panel of sixty human tumor cell lines
(§3) The selected compounds by NCI were evaluated for their anticancer activity in a two-stage process. First, these compounds were screened against the full NCI 60 cell lines panel at a single high dose of 10 µM. Then, the output from the single dose screen is reported as a mean graph. […]
(§4) at five different minimal concentrations.
(§5) Assay protocol. The human tumor cell lines of the cancer screening panel are grown in RPMI 1640 medium containing 5% fetal bovine serum and 2 mM L-glutamine. For a typical screening experiment, cells are inoculated into 96 well microtiter plates in 100 µL at plating densities ranging from 5000 to 40,000 cells/well depending on the doubling time of individual cell lines. After cell inoculation, the microtiter plates are incubated at 37 °C, 5% CO 2, 95% air and 100% relative humidity for 24 h prior to addition of the experimental drugs.
(§6) After 24 h, two plates of each cell line are fixed in situ with TCA, to represent a measurement of the cell population for each cell line at the time of drug addition (Tz). The experimental drugs are solubilized in dimethyl sulfoxide at 400-fold the desired final maximum test concentration and stored frozen prior to use. At the time of drug addition, an aliquot of frozen concentrate is thawed and diluted to twice the desired final maximum test concentration with complete medium containing 50 µg/mL gentamicin. Additional four, 10-fold or ½ log serial dilutions are made to provide a total of five drug concentrations plus control.
(§7) Aliquots of […] of these different drug dilutions are added to the appropriate microtiter wells already containing […] of medium, resulting in the required final drug concentrations.
(§8) Following drug addition, the plates are incubated for an additional 48 h at 37 °C, 5% CO 2, 95% air, and 100% relative humidity. For adherent cells, the assay is terminated by the addition of cold TCA.
(§9) Cells are fixed in situ by the gentle addition of 50 µL of cold 50% (w/v) TCA (final concentration, 10% TCA) and incubated for 60 min at 4 °C. The supernatant is discarded, and the plates are washed five times with tap water and air dried. Sulforhodamine B (SRB) solution ([…]) at 0.4% (w/v) in 1% acetic acid is added to each well, and plates are incubated for 10 min at room temperature. After staining, unbound dye is removed by washing five times with 1% acetic acid and the plates are air dried. Bound stain is subsequently solubilized with 10 mM trizma base, and the absorbance is read on an automated plate reader at a wavelength of 515 nm. For suspension cells, the methodology is […]
(§10) the same except that the assay is terminated by fixing settled cells at the bottom of the wells by gently adding 50 µl of 80% TCA (final concentration, 16% TCA). Using the seven absorbance measurements [time zero, (Tz), control growth, (C), and test growth in the presence of drug at the five concentration levels (Ti)], the percentage growth is calculated at each of the drug concentrations […]
(§11) Percentage growth inhibition is calculated as: [(Ti Tz)/(C–Tz)] x 100 for concentrations for which Ti>/=Tz and [(Ti-Tz)/Tz] x 100 for concentrations for which Ti < Tz.
(§12) Three dose response parameters are calculated for each experimental agent. Growth […]
(§13) concentration resulting in a 50% reduction in the net protein increase (as measured by SRB staining) in control cells during the drug incubation. The drug concentration resulting in total growth inhibition (TGI) is calculated from Ti = Tz. […]
(§14) reduction in the measured protein at the end of the drug treatment as compared to that at the beginning) indicating a net loss of cells following treatment is calculated from [(Ti–Tz)/Tz] x 100 =
(§15) _50. Values are calculated for each of these three parameters if the level of activity is reached; […]

HL-60(TB) = settings: Homo sapiens, Leukemia, read-out: GI%
Method: as §1, §2, §3, §4, §5, §6, §7, §8, §9, §10, §11, §12, §13, §14, §15

HCT-116 = settings: Homo sapiens, HCT-116, Colon cancer, read-out: GI%
Method: as §1, §2, §3, §4, §5, §6, §7, §8, §9, §10, §11, §12, §13, §14, §15

MDA-MB-468 = settings: Homo sapiens, MDA-MB-468, Breast cancer, read-out: GI%
Method: as §1, §2, §3, §4, §5, §6, §7, §8, §9, §10, §11, §12, §13, §14, §15

MDA-MB-435 = settings: Homo sapiens, MDA-MB-435, Melanoma, read-out: GI%
Method: as §1, §2, §3, §4, §5, §6, §7, §8, §9, §10, §11, §12, §13, §14, §15

UACC-257 = settings: Homo sapiens, UACC-257, Melanoma, read-out: GI%
Method: as §1, §2, §3, §4, §5, §6, §7, §8, §9, §10, §11, §12, §13, §14, §15

UACC-62 = settings: Homo sapiens, UACC-62, Melanoma, read-out: GI%
Method: as §1, §2, §3, §4, §5, §6, §7, §8, §9, §10, §11, §12, §13, §14, §15

SF-268 = settings: Homo sapiens, SF-268, CNS cancer, read-out: GI%
Method: as §1, §2, §3, §4, §5, §6, §7, §8, §9, §10, §11, §12, §13, §14, §15

BT-549 = settings: Homo sapiens, BT-549, Breast cancer, read-out: GI%
Method: as §1, §2, §3, §4, §5, §6, §7, §8, §9, §10, §11, §12, §13, §14, §15

MOLT-4 = settings: Homo sapiens, MOLT-4, Leukemia, read-out: GI%
Method: as §1, §2, §3, §4, §5, §6, §7, §8, §9, §10, §11, §12, §13, §14, §15

CCRF-CEM = settings: Homo sapiens, Leukemia, read-out: GI%
Method: as §1, §2, §3, §4, §5, §6, §7, §8, §9, §10, §11, §12, §13, §14, §15

SK-MEL-5 = settings: Homo sapiens, SK-MEL-5, Melanoma, read-out: GI%
Method: as §1, §2, §3, §4, §5, §6, §7, §8, §9, §10, §11, §12, §13, §14, §15

SK-MEL-2 = settings: Homo sapiens, SK-MEL-2, Melanoma, read-out: GI%
Method: as §1, §2, §3, §4, §5, §6, §7, §8, §9, §10, §11, §12, §13, §14, §15

KM12 = settings: Homo sapiens, KM12, Colon cancer, read-out: GI%
Method: as §1, §2, §3, §4, §5, §6, §7, §8, §9, §10, §11, §12, §13, §14, §15

HS 578T = settings: Homo sapiens, Breast cancer, read-out: GI%
Method: as §1, §2, §3, §4, §5, §6, §7, §8, §9, §10, §11, §12, §13, §14, §15

NCI-H23 = settings: Homo sapiens, NCI-H23, Non-small cell lung cancer, read-out: GI%
Method: as §1, §2, §3, §4, §5, §6, §7, §8, §9, §10, §11, §12, §13, §14, §15

M14 = settings: Homo sapiens, M14, Melanoma, read-out: GI%
Method: as §1, §2, §3, §4, §5, §6, §7, §8, §9, §10, §11, §12, §13, §14, §15

RXF 393 = settings: Homo sapiens, RXF 393, Renal cancer, read-out: GI%
Method: as §1, §2, §3, §4, §5, §6, §7, §8, §9, §10, §11, §12, §13, §14, §15

RPMI-8226 = settings: Homo sapiens, RPMI-8226, Leukemia, read-out: GI%
Method: as §1, §2, §3, §4, §5, §6, §7, §8, §9, §10, §11, §12, §13, §14, §15

T-47D = settings: Homo sapiens, T47D, Breast cancer, read-out: GI%
Method: as §1, §2, §3, §4, §5, §6, §7, §8, §9, §10, §11, §12, §13, §14, §15

MDA-MB-231/ATCC = settings: Homo sapiens, Breast cancer, read-out: GI%
Method: as §1, §2, §3, §4, §5, §6, §7, §8, §9, §10, §11, §12, §13, §14, §15

CAKI-1 = settings: Homo sapiens, CAKI-1, Renal cancer, read-out: GI%
Method: as §1, §2, §3, §4, §5, §6, §7, §8, §9, §10, §11, §12, §13, §14, §15

COc1ccc(-c2nc3cc(Cl)c(Cl)cc3n2CC(=O)NN=Cc2cccc(O)c2)cc1 [Compound 10a, 2-(5,6-Dichloro-2-(4-methoxyphenyl)-1H-benzo[d]imidazol-1-yl)-N'-(3-hydroxybenzylidene)acetohydrazide]
inhibition at 10 µM (OVCAR-5): 20.5%
inhibition at 10 µM (HL-60(TB)): 42.6%
inhibition at 10 µM (HCT-116): 59.6%
inhibition at 10 µM (MDA-MB-468): 82.1%
inhibition at 10 µM (MDA-MB-435): 45.9%
inhibition at 10 µM (UACC-257): 57.7%
inhibition at 10 µM (UACC-62): 40%
inhibition at 10 µM (SF-268): 51.5%
inhibition at 10 µM (BT-549): 47.8%
inhibition at 10 µM (MOLT-4): 70.4%
inhibition at 10 µM (CCRF-CEM): 40.6%
inhibition at 10 µM (SK-MEL-5): 79.7%
inhibition at 10 µM (SK-MEL-2): 33.6%
inhibition at 10 µM (KM12): 41%
inhibition at 10 µM (HS 578T): 36.9%
inhibition at 10 µM (NCI-H23): 53.8%
inhibition at 10 µM (M14): 41.1%
inhibition at 10 µM (RXF 393): 44.4%
inhibition at 10 µM (RPMI-8226): 67.4%
inhibition at 10 µM (T-47D): 69.7%
inhibition at 10 µM (MDA-MB-231/ATCC): 20%
inhibition at 10 µM (CAKI-1): 55%

COc1ccc(-c2nc3cc(Cl)c(Cl)cc3n2CC(=O)NN=Cc2ccc(O)cc2)cc1 [Compound 10b, 2-(5,6-Dichloro-2-(4-methoxyphenyl)-1H-benzo[d]imidazol-1-yl)-N'-(4-hydroxybenzylidene)acetohydrazide]
inhibition at 10 µM (OVCAR-5): < 5%
inhibition at 10 µM (HL-60(TB)): 50.7%
inhibition at 10 µM (HCT-116): 45.1%
inhibition at 10 µM (MDA-MB-468): 90.1%
inhibition at 10 µM (MDA-MB-435): 39.1%
inhibition at 10 µM (UACC-257): 23.9%
inhibition at 10 µM (UACC-62): 38%
inhibition at 10 µM (SF-268): 52.5%
inhibition at 10 µM (BT-549): 65.6%
inhibition at 10 µM (MOLT-4): 77.2%
inhibition at 10 µM (CCRF-CEM): 25.4%
inhibition at 10 µM (SK-MEL-5): 52.1%
inhibition at 10 µM (SK-MEL-2): 32.3%
inhibition at 10 µM (KM12): 26.3%
inhibition at 10 µM (HS 578T): 37.8%
inhibition at 10 µM (NCI-H23): 20.3%
inhibition at 10 µM (M14): 39.1%
inhibition at 10 µM (RXF 393): 41.2%
inhibition at 10 µM (RPMI-8226): 62.1%
inhibition at 10 µM (T-47D): 56.4%
inhibition at 10 µM (MDA-MB-231/ATCC): 21.2%
inhibition at 10 µM (CAKI-1): 57.2%
